What was measured:
[1] = refractive index (other wavelength) (dimensionless); settings: 94.64 kPa, Liquid, Standard Abbe refractometry
[2] = 96.64 kPa, Liquid, mechanical oscillator
[3] = refractive index (Na D-line) (dimensionless); settings: 94.64 kPa, Liquid, Standard Abbe refractometry
[4] = refractive index (other wavelength) (dimensionless); xn = mol fraction of the nth substance listed; settings: 94.64 kPa, Liquid, Standard Abbe refractometry, x2 = 0
[5] = refractive index (Na D-line) (dimensionless); xn = mol fraction of the nth substance listed; settings: 94.64 kPa, Liquid, Standard Abbe refractometry, x2 = 0
[6] = xn = mol fraction of the nth substance listed; settings: 96.64 kPa, Liquid, mechanical oscillator, x2 = 0

O [water]
refractive index, [1]
Settings	Wavelength=404.7 nm	Wavelength=435.8 nm	Wavelength=486.1 nm	Wavelength=546.1 nm	Wavelength=587.6 nm	Wavelength=632.8 nm	Wavelength=644 nm	Wavelength=706.5 nm
293.15 K	1.34276	1.34021	1.33716	1.33454	1.33313	1.33183	1.33153	1.33003
298.15 K	1.34222	1.33968	1.33665	1.33402	1.33262	1.33132	1.33102	1.32954
303.15 K	1.34161	1.33909	1.33604	1.33344	1.33203	1.33073	1.33044	1.32897

Settings	mass density, 298.15 K [kg/m3]	mass density, 303.15 K [kg/m3]	refractive index, 293.15 K	refractive index, 298.15 K	refractive index, 303.15 K
[2]	996.61	994.87	–	–	–
[3]	–	–	1.33308	1.33257	1.33198

Cc1ccccc1 [toluene]
refractive index, [1]
Settings	Wavelength=404.7 nm	Wavelength=435.8 nm	Wavelength=486.1 nm	Wavelength=546.1 nm	Wavelength=587.6 nm	Wavelength=632.8 nm	Wavelength=644 nm	Wavelength=706.5 nm
293.15 K	1.52597	1.51768	1.50826	1.50069	1.497	1.49379	1.49306	1.48975
298.15 K	1.52295	1.51473	1.50537	1.49785	1.49419	1.49101	1.49028	1.48697
303.15 K	1.51996	1.51177	1.50248	1.495	1.49137	1.4882	1.48748	1.48419

Settings	mass density, 293.15 K [kg/m3]	mass density, 298.15 K [kg/m3]	mass density, 303.15 K [kg/m3]	refractive index, 293.15 K	refractive index, 298.15 K	refractive index, 303.15 K
[2]	866.75	861.74	856.81	–	–	–
[3]	–	–	–	1.49687	1.49406	1.49124

CC(=O)O [acetic acid]
refractive index, [1]
Settings	Wavelength=404.7 nm	Wavelength=435.8 nm	Wavelength=486.1 nm	Wavelength=546.1 nm	Wavelength=587.6 nm	Wavelength=632.8 nm	Wavelength=644 nm	Wavelength=706.5 nm
293.15 K	1.38345	1.38034	1.37681	1.37386	1.3723	1.37087	1.37055	1.36896
298.15 K	1.38126	1.37816	1.37466	1.37174	1.37018	1.36876	1.36844	1.36686
303.15 K	1.37917	1.37611	1.37261	1.36968	1.36815	1.36675	1.36643	1.36485

Settings	mass density, 293.15 K [kg/m3]	mass density, 298.15 K [kg/m3]	mass density, 303.15 K [kg/m3]	refractive index, 293.15 K	refractive index, 298.15 K	refractive index, 303.15 K
[2]	1049.63	1043.57	1037.64	–	–	–
[3]	–	–	–	1.37224	1.37012	1.36809

O [water] + CC(=O)O
refractive index, [4]
Settings	Wavelength=404.7 nm	Wavelength=435.8 nm	Wavelength=486.1 nm	Wavelength=546.1 nm	Wavelength=587.6 nm	Wavelength=632.8 nm	Wavelength=644 nm	Wavelength=706.5 nm
293.15 K	1.34276	1.34021	1.33716	1.33454	1.33313	1.33183	1.33153	1.33003
298.15 K	1.34222	1.33968	1.33665	1.33402	1.33262	1.33132	1.33102	1.32954
303.15 K	1.34161	1.33909	1.33604	1.33344	1.33203	1.33073	1.33044	1.32897

Settings	mass density, 298.15 K [kg/m3]	mass density, 303.15 K [kg/m3]	refractive index, 293.15 K	refractive index, 298.15 K	refractive index, 303.15 K
[5]	–	–	1.33308	1.33257	1.33198
[6]	996.61	994.87	–	–	–

Cc1ccccc1 [toluene] + CC(=O)O
refractive index, [4]
Settings	Wavelength=404.7 nm	Wavelength=435.8 nm	Wavelength=486.1 nm	Wavelength=546.1 nm	Wavelength=587.6 nm	Wavelength=632.8 nm	Wavelength=644 nm	Wavelength=706.5 nm
293.15 K	1.52597	1.51768	1.50826	1.50069	1.497	1.49379	1.49306	1.48975
298.15 K	1.52295	1.51473	1.50537	1.49785	1.49419	1.49101	1.49028	1.48697
303.15 K	1.51996	1.51177	1.50248	1.495	1.49137	1.4882	1.48748	1.48419

Settings	mass density, 293.15 K [kg/m3]	mass density, 298.15 K [kg/m3]	mass density, 303.15 K [kg/m3]	refractive index, 293.15 K	refractive index, 298.15 K	refractive index, 303.15 K
[5]	–	–	–	1.49687	1.49406	1.49124
[6]	866.75	861.74	856.81	–	–	–

— the NIST ThermoML archive (doi:10.1021/acs.jced.5b00197)
